Values after ≈ are worked out from the molar mass of the structure shown. Marks after values point to notes of the source that are not given here.
How the values were obtained:
[1] = tested on: rv2390c′::GFP reporter Mtb strain; format: cell-based, Mycobacterium tuberculosis; conditions: for rv2390c′::GFP Cl− response phenotype: compared to C6
Mtb = Mtb growth assay in cholesterol media (OD600); format: cell-based, Mycobacterium tuberculosis
Mtb in J774 cells = experiment: Mtb growth in J774 macrophage-like cells (mKO fluorescence); format: cell-based, Mycobacterium tuberculosis; conditions: for % Reduction of Intracellular Infection (J774.1 cells) at 10 μM cmpd: 10 μM compound; for Inhibition of Mtb growth in J774 cells phenotype: compared to C6
Experimental: For the tertiary screen of selected hit compounds in J774 murine macrophage-like cells, 30,000 J774 cells/well were seeded in bar-coded 384-well black, clear bottom plates in a 30 μl volume in J774 infection media (DMEM+10% FBS+1 mM sodium pyruvate+2 mM L-glutamine) using a ThermoFisher Multidrop Combi reagent dispenser, one day prior to assay start. On the day of the assay, log-phase Mtb constitutively expressing mKO were pelleted and resuspended in 1 ml basal uptake buffer (0.5% bovine serum albumin+25 mM dextrose+0.5 mM MgCl2+1 mM CaCl2+0.1% gelatin in phosphate buffered saline (PBS), passed 6× though a tuberculin syringe with a 25 G×5/8″ needle, then resuspended in J774 infection media to a final OD600=0.2. 10 μl of this bacterial suspension was added to each well of the 384-well plates containing the J774 cells, followed by addition of 10 μl of the appropriate compounds (pre-aliquoted in v-bottom plates in a 1:1 mix of PBS:J774 infection media). Addition of Mtb and compounds were conducted using a Janus Ministation. For each test plate, two columns of controls (16 wells each) were included, with one column consisting of treatment with DMSO as a carrier control (negative control), and the other column consisting of treatment with 5 μM rifampicin (positive control). This tertiary assay was done as a dose-response assay in duplicate runs, with compounds tested beginning at a final concentration of 20 μM and two-fold dilutions down to 0.039 μM. Plates were kept in humidified ziplock bags in a 37° C., 5% CO2 incubator. 6 days post-infection, mKO fluorescence signal was read using a PerkinElmer EnVision multimode plate reader (bottom read filter, excitation 530/8 nm, Bodipy TMR D555 single mirror, emission 579/25 nm). mKO fluorescence in DMSO-treated control samples were defined as 100% growth, and fluorescence observed in treatment conditions calculated as a percentage from that set value.
For J774 infection in 96-well plates, 180,000 J774 cells were seeded per well in 180 μl of J774 infection media one day prior to infection. On the day of the assay, log-phase Mtb constitutively expressing mKO were pelleted and resuspended in 1 ml basal uptake buffer, passed 6× though a tuberculin syringe with a 25 G×5/8″ needle, then resuspended in J774 infection media to a final OD600=0.2. Media was removed from 96-well plate containing the J774 cells, with 140 μl of fresh J774 infection media added back to each well. 40 μl of the Mtb suspension at OD600=0.2 was added to each well, followed by addition of appropriate concentration of compound or DMSO in a 20 μl final volume in J774 infection media (compound final concentration 10 μM, rifampicin final concentration 5 μM, DMSO final concentration 0.1%/well). Bacterial mKO fluorescence was read immediately after infection using a Biotek Synergy Neo2 microplate reader (bottom read monochromator, excitation 543/10 nm, emission 565/10 nm), and again 6 days post-infection. Plates were kept in humidified ziplock bags in a 37° C., 5% CO2 incubator. mKO fluorescence in DMSO-treated control samples were defined as 100% growth, and fluorescence observed in treatment conditions calculated as a percentage from that set value.

[2] = Mouse pharmacokinetics, single oral dose; format: in vivo, CD-1 mice; conditions: female, single 25 mg/kg po dose; for Kp at 5 h: CD-1, mouse, lung vs plasma, read-out: Mouse PK Clung/Cplasma at t = 5 h; for AUC(0-t): mouse, plasma, CD-1 mice, read-out: Mouse PK AUC0-5h
Experimental: Blood samples were collected in K2EDTA coated tubes pre-dose, 0.5, 1, 3 and 5 hrs post-dose, placed on ice, and centrifuged to recover plasma. The recovered plasma was kept at −80° C. as needed prior to analysis, which was performed as previously described (Wang et al, 2020). In brief, a Sciex Applied Biosystems Qtrap 4000 triple-quadrupole mass spectrometer coupled to an Agilent 1260 HPLC system was used for HPLC coupled to tandem mass spectrometry (LC-MS/MS) quantitative analysis of the samples, with chromatography attained using an Agilent Zorbax SB-C8 column (2.1×30 mm; particle size, 3.5 μm) and a reverse phase gradient elution. The aqueous mobile phase consisted of Milli-Q deionized water with 0.1% formic acid (A), while the organic mobile phase was 0.1% formic acid in acetonitrile (B). The gradient set-up was as follows: 5-90% B over 2 mins, 1 min at 90% B, then an immediate drop to 5% B and an additional 1 min at 5% B. Quantification of molecules was carried out via multiple-reaction monitoring of parent/daughter transitions in electrospray positive-ionization mode, and sample analyses accepted if quality control and standard samples had concentrations within 20% of the nominal concentration. Preparation of compounds for generation of standard curves and quality control spiking solutions were performed as previously described (Wang et al, 2020). Data were processed using Analyst software (Version 1.6.2; Applied Biosystems Sciex).

[3] = Kinetic aqueous solubility in pH 7.4 PBS; format: physicochemical; conditions: PBS, pH 7.4, aqueous buffer, kinetic from dmso stock; Table 2; read-out: Kinetic Aqueous Solubility S
Experimental: (§1) Assays examining mouse and human liver microsomal stability, kinetic aqueous solubility, mouse and human plasma protein binding and stability, and human cytochrome P450 inhibition characteristics of the compounds were run by BioDuro, Incorporated, using standard protocols as previously described (Wang et al, 2020). hERG inhibition assays were also performed by BioDuro, Incorporated.

[4] = Mouse liver microsomal stability; format: in vitro ADME; conditions: mouse liver microsomes; read-out: MLM t1/2
Experimental: as §1

| Structure (SMILES) | rv2390c′::GFP Cl− response phenotype [1] | Inhibition of Mtb growth in J774 cells phenotype (Mtb in J774 cells) | also measured |
| --- | --- | --- | --- |
| CCSc1ncc(CN2CCN(c3nc4ccccc4s3)CC2)cn1 [JSF-4298, 2-(4-((2-(ethylthio)pyrimidin-5-yl)methyl)piperazin-1-yl)benzo[d]thiazole] | Y |  | rv2390c′::GFP reporter signal upon Mtb exposure to high [Cl−] (in words) ([1]; 10 μM, 250 mM NaCl): continuing to demonstrate the phenotypes seen with the parental C6 compound; Mtb growth in cholesterol media (in words) (Mtb; 10 μM, OD600): continuing to demonstrate the phenotypes seen with the parental C6 compound; Growth inhibition in cholesterol media phenotype (Mtb; compared to C6): Y; Mtb growth in J774 cells (in words) (Mtb in J774 cells; 10 μM, 6 days post-infection): continuing to demonstrate the phenotypes seen with the parental C6 compound |
| CCSc1ncc(CN2CCN(c3nc4ccc(Cl)cc4o3)CC2)cn1 [JSF-4467, 6-chloro-2-(4-((2-(ethylthio)pyrimidin-5-yl)methyl)piperazin-1-yl)benzo[d]oxazole] | Y | Y | Kp at 5 h [2]: 0.36; AUC(0-t) [2]: 41700 ng·h/mL; solubility kinetic [3]: 8.3 µM (≈ 3.24 µg/mL); half-life [4]: 54.3 min; % Reduction of Intracellular Infection (J774.1 cells) at 10 μM cmpd (Mtb in J774 cells): 50.6 ± 2.0% |
| CCSc1ncc(CN2CCN(c3nc4cc(C)ccc4o3)CC2)cn1 [JSF-4471, 2-(4-((2-(ethylthio)pyrimidin-5-yl)methyl)piperazin-1-yl)-5-methylbenzo[d]oxazole] | Y | Y |  |
| CCSc1ncc(CN2CCN(c3nc4cc(Cl)ccc4o3)CC2)cn1 [JSF-4477, 5-chloro-2-(4-((2-(ethylthio)pyrimidin-5-yl)methyl)piperazin-1-yl)benzo[d]oxazole] | Y |  |  |
| CCSc1ncc(CN2CCN(c3nc4ccc(C(F)(F)F)cc4o3)CC2)cn1 [JSF-4507, 2-(4-((2-(ethylthio)pyrimidin-5-yl)methyl)piperazin-1-yl)-6-(trifluoromethyl)benzo[d]oxazole] | Y | Y |  |
| CCSc1ncc(CN2CCN(c3nc4ccc(F)cc4o3)CC2)cn1 [JSF-4509, 2-(4-((2-(ethylthio)pyrimidin-5-yl)methyl)piperazin-1-yl)-6-fluorobenzo[d]oxazole] | Y |  |  |
| CCSc1ncc(CN2CCN(c3nc4cccc(F)c4o3)CC2)cn1 [JSF-4516, 2-(4-((2-(ethylthio)pyrimidin-5-yl)methyl)piperazin-1-yl)-7-fluorobenzo[d]oxazole] | N | Y |  |
| CCSc1ncc(CN2CCN(c3nc4cc(F)c(F)cc4o3)CC2)cn1 [JSF-4525, 2-(4-((2-(ethylthio)pyrimidin-5-yl)methyl)piperazin-1-yl)-5,6-difluorobenzo[d]oxazole] | Y | Y | Kp at 5 h [2]: 0.33; AUC(0-t) [2]: 29700 ng·h/mL; solubility kinetic [3]: 0.952 µM (≈ 0.373 µg/mL); half-life [4]: 39.8 min; % Reduction of Intracellular Infection (J774.1 cells) at 10 μM cmpd (Mtb in J774 cells): 46.3 ± 2.9^b % |
| CCSc1ncc(CN2CCN(c3nc4cc(C(F)(F)F)ccc4o3)CC2)cn1 [JSF-4526, 2-(4-((2-(ethylthio)pyrimidin-5-yl)methyl)piperazin-1-yl)-5-(trifluoromethyl)benzo[d]oxazole] | Y | Y | Kp at 5 h [2]: 0.44; AUC(0-t) [2]: 27500 ng·h/mL; solubility kinetic [3]: 38.6 µM (≈ 16.3 µg/mL); half-life [4]: 32 min; % Reduction of Intracellular Infection (J774.1 cells) at 10 μM cmpd (Mtb in J774 cells): 52.4 ± 1.4% |
| CCSc1ncc(CN2CCN(c3nc4cc(OC)ccc4o3)CC2)cn1 [JSF-4528, 2-(4-((2-(ethylthio)pyrimidin-5-yl)methyl)piperazin-1-yl)-5-methoxybenzo[d]oxazole] | N |  |  |
| CCSc1ncc(CNCCNc2nc3ccccc3o2)cn1 [JSF-4547, N^1-(benzo[d]oxazol-2-yl)-N^2-((2-(ethylthio)pyrimidin-5-yl)methyl)ethane-1,2-diamine] | N | N |  |
| CCSc1ncc(CN2CCN(c3nc4c(C)cccc4o3)CC2)cn1 [JSF-4551, 2-(4-((2-(ethylthio)pyrimidin-5-yl)methyl)piperazin-1-yl)-4-methylbenzo[d]oxazole] | Y | Y |  |
| CCSc1ncc(CN2CCN(c3nc4cccc(C)c4o3)CC2)cn1 [JSF-4562, 2-(4-((2-(ethylthio)pyrimidin-5-yl)methyl)piperazin-1-yl)-7-methylbenzo[d]oxazole] | Y | Y |  |
| CCSc1ncc(CN2CCN(c3nc4cccc(C(F)(F)F)c4o3)CC2)cn1 [JSF-4601, 2-(4-((2-(ethylthio)pyrimidin-5-yl)methyl)piperazin-1-yl)-7-(trifluoromethyl)benzo[d]oxazole] | Y |  |  |
| CCSc1ncc(CN2CCN(c3nc4c(F)cccc4o3)CC2)cn1 [JSF-4602, 2-(4-((2-(ethylthio)pyrimidin-5-yl)methyl)piperazin-1-yl)-4-fluorobenzo[d]oxazole] | Y | Y |  |
| CCSc1ncc(CN2CCN(c3nc4cccc(Cl)c4o3)CC2)cn1 [JSF-4603, 7-chloro-2-(4-((2-(ethylthio)pyrimidin-5-yl)methyl)piperazin-1-yl)benzo[d]oxazole] | Y | Y |  |
| CCSc1ncc(CN2CCN(c3nc4c(Cl)cccc4o3)CC2)cn1 [JSF-4604, 4-chloro-2-(4-((2-(ethylthio)pyrimidin-5-yl)methyl)piperazin-1-yl)benzo[d]oxazole] | Y | Y |  |
| CCSc1ncc(C(=O)N2CCN(c3nc4ccccc4o3)CC2)cn1 [JSF-4683, (4-(benzo[d]oxazol-2-yl)piperazin-1-yl)(2-(ethylthio)pyrimidin-5-yl)methanone] | N |  |  |
| CSc1ncc(CN2CCN(c3nc4ccccc4o3)CC2)cn1 [JSF-4730, 2-(4-((2-(methylthio)pyrimidin-5-yl)methyl)piperazin-1-yl)benzo[d]oxazole] | Y | Y |  |
| CCSc1ncc(CN2CCN(c3ncco3)CC2)cn1 [JSF-4747, 2-(4-((2-(ethylthio)pyrimidin-5-yl)methyl)piperazin-1-yl)oxazole] | Y |  |  |
